According to patent publication US6310210A, “Camptothecin derivatives” (Kabushiki Kaisha Yakult Honsha, priority 1997, dated 2001):
Values after ≈ are worked out from the molar mass of the structure shown. One block for each compound: values may come before it.

Assays:
[1] = Stability test in water at each pH (phosphate buffer, HPLC); format: physicochemical; details: for Amount of the compound in test solution: room temperature (about 26° C.)
Experimental: 1) Preparation of calibration curve:
1.05 mg of the compound 1 and 1.10 mg of the compound A (Note) were measured, dissolved in acetonitrile 10 ml to give a standard solution. 20 μl of the standard solution was tested by HPLC method (procedure condition 1). The peak area of the compound 1 and the compound A (Note), which is obtained from the chromatograph of the standard solution is measured by an automatic integration method, and the obtained area is plotted against an amount of the compound 1 and the compound A (2.1 μg and 2.2 μg) by 20 μl to prepare a calibration curve.
[HPLC method, procedure condition 1]
Column: Inertsil ODS-3 (5-250), 40 deg.
Mobile phase: 0.01 M potassium dihydrogenphosphate-acetonitrile (3:1)
Detection: UV absorptiometer (254 nm)
About 1 mg (×3) of the compound 1 were measured, dissolved adding a phosphate buffer 10 ml of pH 10.0, 7.0 or 5.4, stirred at room temperature (about 26° C.) to make a test solution. As to each 20 μl of the test solution at the time of dissolution, 3 hr later and 24 hr later, the tests were carried out by the HPLC method (procedure condition 1). The amounts of the compound 1 were measured from the obtained area. The amounts of the compound A in each pH were measured.
The amounts (μg/ml) of the compound 1 and the compound A at the time of dissolution, 3 hr later and 24 hr later in each pH are shown in Table 7.

[2] = Solubility of each hydrochloride in purified water; format: physicochemical
Experimental: A corresponding camptothecin-21-(2-dimethylamino) ethylamide derivative (100-200 mg) was added with an aqueous 0.1 N HCl solution (1.05 eq.) and dissolved, if necessary, further by adding purified water. The solution was filtered using MILLEX-GV ([…] Filter Unit), and the filtrate was lyophilized to give the desired hydrochloride.
Table 1: Solubility of each hydrochloride in purified water

[3] = test system: mouse leukemia L1210; assay: Anti-tumor activity: life prolonging effect in mice transplanted intraperitoneally with mouse leukemia L1210 (T/C%); format: in vivo; details: for Anti-tumor activity (T/C%): i.p. day 1, 5 and 9
Experimental: 5×10^5 cells of mouse leukemia L1210 were transplanted intraperitoneally to a group of six female CDP1 mice (7 weeks old, body weight 17-19 g). A test substance was administered intraperitoneally on day 1, 5 and 9, and its life prolonging effect was observed. In a case of the administration of a test substance as an acid addition salt, it was dissolved in purified water. The total administration amount was 1.56-400 mg/kg. The anti-tumor activity was expressed by the value (T/C%) in which the ratio of the mean survival days of a drug administered group (T) to the mean survival days of a not administered group (C) is multiplied by 100.

Amount of the compound in test solution ([1]; pH 5.4, 3 hr later): 118 µg/mL | Amount of the compound in test solution ([1]; pH 5.4, 24 hr later): 118 µg/mL | Amount of the compound in test solution ([1]; pH 5.4, at the time of dissolution): 118 µg/mL | Amount of the compound in test solution ([1]; pH 7.0, 3 hr later): 105 µg/mL | Amount of the compound in test solution ([1]; pH 7.0, 24 hr later): 105 µg/mL | Amount of the compound in test solution ([1]; pH 7.0, at the time of dissolution): 105 µg/mL | Stability in aqueous solution (in words) ([1]; pH 7.0 and 5.4, room temperature): stably present at room temperature | Amount of the compound in test solution ([1]; pH 10.0, 3 hr later): 106 µg/mL | Amount of the compound in test solution ([1]; pH 10.0, 24 hr later): 97 µg/mL | Amount of the compound in test solution ([1]; pH 10.0, at the time of dissolution): 109 µg/mL | remaining at 24 h ([1]; phosphate buffer, pH 10.0, after 24 hr, read-out: remained in the aqueous solution): 89% | solubility [2]: ≥ 50 mg/mL
Structure (SMILES): CCc1c2c(nc3ccccc13)-c1cc([C@@](O)(CC)C(=O)NCCN(C)C)c(COC(=O)NC)c(=O)n1C2 [Compound 1, 7-Ethyl-17-methylcarbamoyloxycamptothecin-21-(2-dimethylamino)ethylamide]
Anti-tumor activity (T/C%) ([3]; Table 2, total dose 3.13 mg/kg): 97% | Anti-tumor activity (T/C%) ([3]; Table 2, total dose 6.25 mg/kg): 97% | Anti-tumor activity (T/C%) ([3]; Table 2, total dose 12.5 mg/kg): 95% | Anti-tumor activity (T/C%) ([3]; Table 2, total dose 25 mg/kg): 97% | Anti-tumor activity (T/C%) ([3]; Table 2, total dose 50 mg/kg): 97% | Anti-tumor activity (T/C%) ([3]; Table 2, total dose 100 mg/kg): 139% | Anti-tumor activity (T/C%) ([3]; Table 2, total dose 200 mg/kg): 145%

solubility [2]: ~50 mg/mL (≈ 91 mM)
Structure (SMILES): CCc1c2c(nc3ccccc13)-c1cc([C@@](O)(CC)C(=O)NCCN(C)C)c(COC(=O)NC(C)C)c(=O)n1C2 [Compound 4, 7-Ethyl-17-iso-propylcarbamoyloxycamptothecin-21-(2-dimethylamino)ethylamide]
Anti-tumor activity (T/C%) ([3]; Table 4, total dose 3.13 mg/kg): 121% | Anti-tumor activity (T/C%) ([3]; Table 4, total dose 6.25 mg/kg): 123% | Anti-tumor activity (T/C%) ([3]; Table 4, total dose 12.5 mg/kg): 121% | Anti-tumor activity (T/C%) ([3]; Table 4, total dose 25 mg/kg): 123% | Anti-tumor activity (T/C%) ([3]; Table 4, total dose 50 mg/kg): 149% | Anti-tumor activity (T/C%) ([3]; Table 4, total dose 100 mg/kg): 205% | Anti-tumor activity: fraction in parentheses after T/C% (meaning not given) ([3]; Table 4, total dose 200 mg/kg, group of six mice): 1/6 | Anti-tumor activity (T/C%) ([3]; Table 4, total dose 200 mg/kg): 323%
